The target in one experiment is T1, STAT6 (Homo sapiens, UniProt P42226).
T1 construct: stably transfected HaCaT keratinocyte cell line, which expresses NanoLuc luciferase reporter gene under the transcriptional control of the STAT6 responsive promoter; endogenous in cells; host or cells: HaCaT keratinocyte reporter cell line (stably transfected with a NanoLuc reporter)
T1 sequence (P42226 1-847): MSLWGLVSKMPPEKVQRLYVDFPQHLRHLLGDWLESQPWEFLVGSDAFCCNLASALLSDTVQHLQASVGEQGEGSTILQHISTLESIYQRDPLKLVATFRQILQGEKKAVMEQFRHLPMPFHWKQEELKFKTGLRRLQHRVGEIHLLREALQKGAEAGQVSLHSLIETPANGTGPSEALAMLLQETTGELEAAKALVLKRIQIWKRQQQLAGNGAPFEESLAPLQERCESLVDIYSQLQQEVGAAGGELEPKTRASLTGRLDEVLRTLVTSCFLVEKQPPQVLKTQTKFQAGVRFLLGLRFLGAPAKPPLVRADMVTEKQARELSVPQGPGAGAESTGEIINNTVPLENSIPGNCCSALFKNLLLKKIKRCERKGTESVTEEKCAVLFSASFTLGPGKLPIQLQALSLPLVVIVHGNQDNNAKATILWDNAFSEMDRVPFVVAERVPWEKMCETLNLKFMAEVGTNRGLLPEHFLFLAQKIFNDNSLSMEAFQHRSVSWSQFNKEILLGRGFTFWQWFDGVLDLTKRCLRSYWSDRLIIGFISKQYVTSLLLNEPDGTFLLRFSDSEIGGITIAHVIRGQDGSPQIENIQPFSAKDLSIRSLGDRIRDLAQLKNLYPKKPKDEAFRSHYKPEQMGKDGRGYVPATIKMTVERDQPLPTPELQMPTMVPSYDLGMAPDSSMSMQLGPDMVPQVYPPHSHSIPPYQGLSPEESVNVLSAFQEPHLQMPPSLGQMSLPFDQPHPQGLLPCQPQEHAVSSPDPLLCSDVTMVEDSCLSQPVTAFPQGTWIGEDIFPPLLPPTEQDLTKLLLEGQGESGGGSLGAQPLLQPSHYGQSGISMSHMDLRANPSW
Put plainly: STAT6 Reporter Luciferase Assay (IL-13 stimulated HaCaT keratinocyte NanoLuc reporter cells). The format is cell-based. Conditions: read-out: Reporter EC50. The method in brief:
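Compounds were tested as 11-point, 4-fold series in duplicate, applied for 2 h at 37 °C in low-serum (2% FBS) DMEM. The cells were a stable HaCaT line with NanoLuc under a STAT6-responsive IL-13Ra2 promoter. After 4 h with 0.12 nM IL-13, Nano-Glo luminescence was measured.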

The subject of experiment [1] is CCL17 secretion in peripheral human whole blood. Put plainly: Human Whole Blood (HWB) CCL17 TR-FRET Assay (IL-13 stimulated CCL17 secretion). In kind it is cell-based. The method in brief: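 Heparinized human whole blood was preincubated with compound (11-point, 3-fold series) for 2 h at 37°C, then stimulated with IL-13 (10 ng/mL final) for 48 h. Serum CCL17 was measured by TR-FRET sandwich immunoassay (665/615 nm ratio) after 16 h at room temperature, giving IC50.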

Where [2] appears, read: IL-13 stimulated HaCaT STAT6 NanoLuc reporter cells.
Setting [3] is: Homo sapiens, 48 h, human whole blood, 10 ng/mL IL13, 48 hours.
[4] abbreviates: STAT6 NanoLuc luciferase reporter, IL-13 stimulated HaCaT keratinocyte cells.
[5] abbreviates: Homo sapiens, 48 h, inhibition of CCL17 secretion in human whole blood, 10 ng/mL IL13, 48 hours.

Our source for the EC50 and IC50 values is patent US20250320213A1, “Nitrogen-Containing Heterocyclic Compounds” (Pfizer Inc., priority 2024, published 2025).

The structures appear in SMILES notation. Read-outs that look alike come from different tables or passages of the source.

For `C[C@@H]1CN(c2ccc(C(=O)N(C)C)cn2)Cc2c(C(=O)NCc3ccc(NC(=O)N(C)C)cc3)nn(C3(C)CC3)c21` (single isomer, unassigned) [Example 551], the EC50 on STAT6 (setting [2]) turned out to be 12 nM. Further, the concentration for half-maximal inhibition (IC50) in experiment [1] (setting [3]) was found to be 104 nM.
On the same counts, the results for `CC(C)n1nc(C(=O)NCc2ccc(NC(=O)N(C)C)cc2)c2c1[C@H](C)CN(c1ncc(C(=O)N(C)C)cn1)C2` (single isomer, unassigned) [Example 552] are 34 nM and 87 nM.
On the same counts, the results for `C[C@@H]1CN(c2ccc(C(=O)N(C)C)cn2)Cc2c(C(=O)NCc3ccc(NC(=O)N(C)C)cc3)nn(C3CCOCC3)c21` (single isomer, unassigned) [Example 556] are 58 nM and 196 nM.
On the same counts, the results for `C[C@@H]1CN(c2ccc(C(=O)N(C)C)cn2)Cc2c(C(=O)NCc3ccc(NC(=O)N(C)C)cc3)nn(C3CCC3)c21` (single isomer, unassigned) [Example 557] are 15 nM and 204 nM.
With `CNC1(C)CCN(C(=O)Nc2ccc(CNC(=O)c3nn(C(C)C)c4c3CN(c3ccc(C(=O)N(C)C)cc3)C[C@@H]4C)cc2)C1` (single isomer, unassigned) [Example 713, (S)-5-(4-(dimethylcarbamoyl)phenyl)-1-isopropyl-7-methyl-N-(4-((R*)-3-methyl-3-(methylamino)pyrrolidine-1-carboxamido)benzyl)-4,5,6,7-tetrahydro-1H-pyrazolo[4,3-c]pyridine-3-carboxamide], the concentration giving a half-maximal response (EC50) on STAT6 (setting [2]) turned out to be 3 nM. In experiment [1] (Homo sapiens, 48 h, human whole blood, IL-13 10 ng/mL), this compound showed an IC50 of 22 nM.
Consider `CNC1(C)CCN(C(=O)Nc2ccc(CNC(=O)c3nn(C(C)C)c4c3CN(c3ccc(C(=O)N(C)C)cc3)C[C@@H]4C)cc2)C1` (single isomer, unassigned) [Example 714, (S)-5-(4-(dimethylcarbamoyl)phenyl)-1-isopropyl-7-methyl-N-(4-((R*)-3-methyl-3-(methylamino)pyrrolidine-1-carboxamido)benzyl)-4,5,6,7-tetrahydro-1H-pyrazolo[4,3-c]pyridine-3-carboxamide], for which the concentration giving a half-maximal response (EC50) at STAT6 (setting [2]) amounted to 4 nM. Further, the IC50 in experiment [1] (human whole blood, IL-13 10 ng/mL, 48 hours) was 28 nM.
Take `CC(C)n1nc(C(=O)NCc2ccc(NC(=O)N(C)C)cc2)c2c1CCN(c1ccc(N3CCCC3=O)cn1)C2` [Example 1, N-(4-(3,3-dimethylureido)benzyl)-1-isopropyl-5-(5-(2-oxopyrrolidin-1-yl)pyridin-2-yl)-4,5,6,7-tetrahydro-1H-pyrazolo[4,3-c]pyridine-3-carboxamide]: the EC50 at STAT6 (setting [4]) stood at 11 nM. The compound further registered an IC50 in experiment [1] (setting [5]) of 318 nM.
For the compound `CC(C)n1nc(C(=O)NCc2ccc(NC(=O)N(C)C)cc2)c2c1CCN(c1ccc(C(=O)N(C)C)cn1)C2` [Example 2, 5-(5-(Dimethylcarbamoyl)pyridin-2-yl)-N-(4-(3,3-dimethylureido)benzyl)-1-isopropyl-4,5,6,7-tetrahydro-1H-pyrazolo[4,3-c]pyridine-3-carboxamide], on STAT6 (setting [4]), the concentration giving a half-maximal response (EC50) stood at 8 nM. Moreover, in experiment [1] (setting [5]), the 50% inhibitory concentration (IC50) is 69 nM.
On the same counts, the results for `CCn1nc(C(=O)NCc2ccc(NC(=O)N(C)C)cc2)c2c1CCN(c1ccc(C(=O)N(C)C)cn1)C2` [Example 3, 5-(5-(Dimethylcarbamoyl)pyridin-2-yl)-N-(4-(3,3-dimethylureido)benzyl)-1-ethyl-4,5,6,7-tetrahydro-1H-pyrazolo[4,3-c]pyridine-3-carboxamide] are 10 nM and 104 nM.
On the same counts, the results for `CNC(=O)c1ccc(CNC(=O)c2nn(C)c3c2CN(c2ccc(C(=O)N(C)C)cc2)CC3)cc1` [Example 4, 5-(4-(Dimethylcarbamoyl)phenyl)-1-methyl-N-(4-(methylcarbamoyl)benzyl)-4,5,6,7-tetrahydro-1H-pyrazolo[4,3-c]pyridine-3-carboxamide] are 178 nM and 1110 nM.
